According to article PMC4656118 (Journal of biomolecular screening, 2014):

Legend:
salmon sperm DNA = assay: Counterscreen to detect DNA intercalators; assay type: binding; conditions: for DNA intercalation (competition with acridine orange): pilot screen hits at increasing concentrations; for Competition with acridine orange for DNA intercalation (acridine orange mP values): assay validation, increasing concentration, monensin up to 1uM
[1] = target: N-LANA peptide binding to nucleosomes (histones H2A/H2B) (Gallus gallus, UniProt P02263+P0C1H3); assay: biochemical; design: species or system chicken; conditions: for Identified as hit in pilot screen (Z score < −2 for both replicates): pilot screen of known bioactives; for Scored positive for inhibition in HTS at ICCB-L/NSRB: 49,810 small molecules screened in duplicate, Z score
[2] = target: GST LANA1-23 binding to nucleosomes (Gallus gallus, UniProt P02263+P0C1H3); assay: ELISA, inhibition of GST LANA1-23 binding to nucleosomes; design: species or system chicken; conditions: increasing concentrations of competitor or compound

| SMILES | DNA intercalation (competition with acridine orange) (salmon sperm DNA) | Confirmation of inhibitory activity by FP ([1]; pilot screen hits retested at increasing concentrations) | Identified as hit in pilot screen (Z score < −2 for both replicates) [1] | Competition with acridine orange for DNA intercalation (acridine orange mP values) (salmon sperm DNA) | Inhibition of GST LANA1-23 binding to nucleosomes by ELISA [2] | IC50 [1] | Scored positive for inhibition in HTS at ICCB-L/NSRB [1] | Inhibition of LANA 1-23 binding to nucleosomes ([1]; negative control for HTS) |
| --- | --- | --- | --- | --- | --- | --- | --- | --- |
| CC[C@@]1(O)C(=O)OCc2c1cc1n(c2=O)Cc2cc3cc(O)ccc3nc2-1 [10-HCT, 10-hydroxycamptothecin] | inconsistently competed | could not be confirmed | identified |  |  |  |  |  |
| CC[n+]1c(-c2ccccc2)c2cc(N)ccc2c2ccc(N)cc21 [EtBr, ethidium bromide] |  |  |  | reduced acridine orange mP values |  |  |  |  |
| O=C1c2c(O)ccc(O)c2C(=O)c2c(NCCNCCO)ccc(NCCNCCO)c21 [MTX, mitoxantrone] | scored positive for DNA intercalation |  | identified | reduced acridine orange mP values | inhibitory activity | < 25 µM | scored positive |  |
| CC[C@@]1([C@@H]2O[C@@H]([C@H]3O[C@@](O)(CO)[C@H](C)C[C@@H]3C)C[C@@H]2C)CC[C@H]([C@]2(C)CC[C@]3(C[C@H](O)[C@@H](C)[C@@H]([C@@H](C)[C@@H](OC)[C@H](C)C(=O)O)O3)O2)O1 [Monensin, monensin] |  |  |  | negligible effect |  |  |  | did not inhibit |
| CC[N+](C)(CC)CCC[n+]1c(-c2ccccc2)c2cc(N)ccc2c2ccc(N)cc21.[I-].[I-] [PI, propidium iodide] |  |  |  | reduced acridine orange mP values |  |  |  |  |
| COc1cccc2c1C(=O)c1c(O)c3c(c(O)c1C2=O)C[C@@](O)(C(C)=O)C[C@@H]3O[C@H]1C[C@H](N)[C@H](O)[C@H](C)O1 [daunorubicin] | scored positive for DNA intercalation |  | identified |  |  |  | scored positive |  |
| COc1cccc2c1C(=O)c1c(O)c3c(c(O)c1C2=O)C[C@@](O)(C(=O)CO)C[C@@H]3O[C@H]1C[C@H](N)[C@H](O)[C@H](C)O1 [doxorubicin] | scored positive for DNA intercalation |  | identified |  | inhibitory activity | < 25 µM | scored positive |  |
